From patent publication US20240342133A1, “TOPICAL STATIN FORMULATION FOR TREATMENT OF LICHEN SCLEROSUS AND PSORIASIS” (TBT PHARMA, INC, priority 2023, published 2024)

What was measured:
cortisol = test: Cortisol levels in primary human keratinocyte cultures and organotype wound healing models; type: cell-based; conditions: after treatment
Source text: FIG. 4. Cortisol levels in organotype wound models after treatment with mevastatin. […] Without cholesterol, local cortisol production should drop because cholesterol is required for cortisol synthesis. This was confirmed in primary human keratinocyte cultures and organotype wound healing models after treatment with mevastatin.

MRSA = MRSA load in ex-vivo wound cultures; parameters: species or system methicillin resistant staph aureus; conditions: after 24 hours
[1] = system: Primary human keratinocytes; test: Keratinocyte migration scratch test; type: cell-based; conditions: varying doses
chronic wounds = test: Full thickness diabetic porcine wound model; type: in vivo; conditions: for increase in wound vascularity (% vascularity): versus vehicle, day 10, PD31 stain
Procedure: FIG. 6. Histology sections of optimal dose at day 10 show increased epithelialization and vascularization. FIG. 7. Percent vascularity at day 10 determined by PD31 stain. […] Mevastatin, simvastatin, and a combination were tested in a full thickness diabetic porcine model. FIG. 6 confirms that statins are an effective treatment of chronic wounds with a known mechanism of action. The compounds show increased epithelialization and vascularization.

c-myc = c-myc expression in human skin ex-vivo (chronic wound) cultures and organotype wound models; type: cell-based; conditions: samples from chronic wounds, cultured, before and after treatment; relatively short time frame
Source text: FIG. 3. C-myc expression in ex-vivo cultures before and after treatment with mevastatin. […] Samples are directly from chronic wounds, cultured, and measured c-myc levels before and after treatment with mevastatin. […] A large effect of high c-myc levels is that they cause abnormal differentiation and migration of keratinocytes.

[2] = full thickness diabetic porcine model, day 10

Compound | local cortisol production (cortisol) | MRSA load (MRSA) | keratinocyte migration [1] | epithelialization (chronic wounds; [2]) | vascularization (chronic wounds; [2]) | increase in wound vascularity (% vascularity) (chronic wounds) [fold] | c-myc levels (c-myc)
CC[C@H](C)C(=O)O[C@H]1CCC=C2C=C[C@H](C)[C@H](CC[C@@H]3C[C@@H](O)CC(=O)O3)[C@H]21 [mevastatin] | drop | drastic reduction | increasing migration levels with dose | increased | increased | ~3 | drop drastically
CCC(C)(C)C(=O)O[C@H]1C[C@@H](C)C=C2C=C[C@H](C)[C@H](CC[C@@H]3C[C@@H](O)CC(=O)O3)[C@H]21 [simvastatin] |  |  |  |  |  | ~3 | 
